In ChEMBL document CHEMBL1201862, “PubChem BioAssay data set” (2004):
The source made the active and inactive calls.

What was measured:
[1] = human group III sPLA2 inhibitors, dose response, biochemical, QFRET, IC50 (AID 743457);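 note: green fluorescence rise as the enzyme cleaves BODIPY PC-A2 in liposomes; potency for inhibition of the enzyme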
[2] = target: Cytochrome P450 2D6 (Homo sapiens, UniProt P10635);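 note: CYP2D6 member of a cytochrome P450 panel assay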
[3] = target: Cytochrome P450 3A4 (Homo sapiens, UniProt P08684);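 note: CYP3A4 tested as one member of a cytochrome P450 panel screen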
[4] = target: Cytochrome P450 2C9 (Homo sapiens, UniProt P11712)
[5] = target: Photoreceptor-specific nuclear receptor (Homo sapiens, UniProt Q9Y5X4); type: functional, cell-based;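 note: CHO-S cells with Gal4-NCOR and VP16-NR2E3 two-hybrid luciferase reporter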
[6] = target: T1, Methionyl-tRNA synthetase, putative (Trypanosoma brucei brucei, UniProt Q38C91); type: functional, Trypanosoma brucei brucei strain 927/4 GUTat10.1
T1 sequence (Q38C91 whole entry): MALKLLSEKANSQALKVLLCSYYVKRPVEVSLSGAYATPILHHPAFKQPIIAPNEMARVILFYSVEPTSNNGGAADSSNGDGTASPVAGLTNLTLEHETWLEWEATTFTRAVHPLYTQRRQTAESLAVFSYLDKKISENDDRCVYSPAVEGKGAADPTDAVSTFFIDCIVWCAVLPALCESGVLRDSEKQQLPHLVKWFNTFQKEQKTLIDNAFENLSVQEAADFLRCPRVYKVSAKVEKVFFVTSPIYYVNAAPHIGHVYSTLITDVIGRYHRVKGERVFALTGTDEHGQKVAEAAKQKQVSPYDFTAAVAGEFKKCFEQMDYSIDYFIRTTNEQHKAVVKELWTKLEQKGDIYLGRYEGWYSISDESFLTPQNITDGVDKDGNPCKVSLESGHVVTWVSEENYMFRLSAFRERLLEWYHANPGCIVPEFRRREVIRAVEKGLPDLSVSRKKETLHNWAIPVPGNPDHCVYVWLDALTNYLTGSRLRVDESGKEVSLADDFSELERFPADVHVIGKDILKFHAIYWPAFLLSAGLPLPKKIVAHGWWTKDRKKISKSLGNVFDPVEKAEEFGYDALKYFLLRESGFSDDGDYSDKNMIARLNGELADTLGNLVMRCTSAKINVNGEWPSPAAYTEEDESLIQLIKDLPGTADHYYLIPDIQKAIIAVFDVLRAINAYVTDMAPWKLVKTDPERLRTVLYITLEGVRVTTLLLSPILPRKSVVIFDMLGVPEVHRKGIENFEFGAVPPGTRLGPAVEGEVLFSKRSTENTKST

[7] = Counterscreen for inhibitors of Trypanosoma brucei methionyl tRNA synthetase (MetRS): Luminescence-based cell-based high throughput dose response assay to identify compounds that are cytotoxic to Jurkat human T lymphocyte cells.; type: functional
[8] = target: T1, Methionyl-tRNA synthetase, putative; type: functional, Trypanosoma brucei brucei strain 927/4 GUTat10.1; remark: listed apart in the source
[9] = target: SWI/SNF-related matrix-associated actin-dependent regulator of chromatin subfamily A member 2 (Homo sapiens, UniProt P51531); assay: Luminescence-based cell-based high throughput dose response assay to identify activators of the function of SWI/SNF related, matrix associated, actin dependent regulator of chromatin, subfamily a, member 2 (SMARCA2, BRM).; type: functional
[10] = Counterscreen for activators of the function of SWI/SNF related, matrix associated, actin dependent regulator of chromatin, subfamily a, member 2 (SMARCA2, BRM): Luminescence-based cell-based high throughput dose response assay to identify non-selective compounds using the VP16 reporter assay.; type: functional
[11] = target: Major prion protein (Homo sapiens, UniProt P04156); type: functional, cell-based
[12] = cells
[13] = growth suppression of PTEN-null colon cells, dose response, cell-based, HCT116 PTEN knockout (AID 1047); type: functional;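 note: HCT116 colon tumor cells with PTEN knocked out; cells exposed to compound for 60 hours before readout; potency for loss of cell viability measured by luminescence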
[14] = growth suppression of beta-catenin-knockout colon cells, dose response, cell-based, HCT116, human colon tumor (AID 1045); type: functional;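 note: HCT116 colon tumor cells with beta catenin knocked out; cells exposed to compound for 60 hours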
[15] = Luminescence Cell-Based Dose Retest to Confirm Inhibitors of Cancer Stem Cells. [Related pubchem assays (depositor defined):AID2717, AID2721]; type: functional; details: Homo sapiens
[16] = cytotoxicity in HMLE control line with eGFP shRNA, dose response, counter-screen for HMLE_sh_ECad selective toxicity project, cell-based, HMLE_sh_eGFP, luminescence (AID 463074); type: functional, Homo sapiens;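 note: HMLE human mammary epithelial cells expressing control shRNA against eGFP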
[17] = test system: Vero; assay: cells; type: functional; details: Chlorocebus sabaeus
[18] = target: Matrix metalloproteinase-14 (Homo sapiens, UniProt P50281); assay: Dose Response confirmation of uHTS hits for a small molecule inhibitors of MT1-MMP activation in a fluorescence assay set 1.; type: functional
[19] = HEp-2 cell cytotoxicity, dose response, cytotoxicity control for RSV inhibitor project, HTS (AID 2410); type: functional; details: human respiratory syncytial virus
[20] = target: T2, Microphthalmia-associated transcription factor (Homo sapiens, UniProt O75030); assay: TRPM1 promoter luciferase signal decrease, dose response, MITF inhibitor project, cell-based, SK-MEL-5, cherry-picked, set 3 (AID 493073); type: functional
T2 sequence (O75030 whole entry): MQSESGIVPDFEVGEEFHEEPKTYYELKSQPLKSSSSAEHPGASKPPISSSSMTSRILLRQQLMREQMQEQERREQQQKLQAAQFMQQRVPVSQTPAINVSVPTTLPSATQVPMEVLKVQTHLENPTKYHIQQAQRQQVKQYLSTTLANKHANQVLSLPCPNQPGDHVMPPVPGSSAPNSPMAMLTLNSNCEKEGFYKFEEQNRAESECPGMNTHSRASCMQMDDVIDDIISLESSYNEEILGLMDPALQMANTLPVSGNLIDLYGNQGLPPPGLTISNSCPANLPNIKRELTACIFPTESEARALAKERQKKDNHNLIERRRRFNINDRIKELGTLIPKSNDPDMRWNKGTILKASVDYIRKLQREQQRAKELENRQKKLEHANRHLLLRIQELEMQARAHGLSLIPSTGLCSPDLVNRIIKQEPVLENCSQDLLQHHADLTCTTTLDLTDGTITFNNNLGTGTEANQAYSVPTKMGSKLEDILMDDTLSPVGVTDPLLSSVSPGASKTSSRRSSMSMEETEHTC

[21] = target: T3, Insulin-degrading enzyme (Homo sapiens, UniProt P14735); assay: activators of recombinant IDE enzyme, dose response, counter-screen for IDE activator project, biochemical, fluorescence polarization (AID 588681)
T3 sequence (P14735 whole entry): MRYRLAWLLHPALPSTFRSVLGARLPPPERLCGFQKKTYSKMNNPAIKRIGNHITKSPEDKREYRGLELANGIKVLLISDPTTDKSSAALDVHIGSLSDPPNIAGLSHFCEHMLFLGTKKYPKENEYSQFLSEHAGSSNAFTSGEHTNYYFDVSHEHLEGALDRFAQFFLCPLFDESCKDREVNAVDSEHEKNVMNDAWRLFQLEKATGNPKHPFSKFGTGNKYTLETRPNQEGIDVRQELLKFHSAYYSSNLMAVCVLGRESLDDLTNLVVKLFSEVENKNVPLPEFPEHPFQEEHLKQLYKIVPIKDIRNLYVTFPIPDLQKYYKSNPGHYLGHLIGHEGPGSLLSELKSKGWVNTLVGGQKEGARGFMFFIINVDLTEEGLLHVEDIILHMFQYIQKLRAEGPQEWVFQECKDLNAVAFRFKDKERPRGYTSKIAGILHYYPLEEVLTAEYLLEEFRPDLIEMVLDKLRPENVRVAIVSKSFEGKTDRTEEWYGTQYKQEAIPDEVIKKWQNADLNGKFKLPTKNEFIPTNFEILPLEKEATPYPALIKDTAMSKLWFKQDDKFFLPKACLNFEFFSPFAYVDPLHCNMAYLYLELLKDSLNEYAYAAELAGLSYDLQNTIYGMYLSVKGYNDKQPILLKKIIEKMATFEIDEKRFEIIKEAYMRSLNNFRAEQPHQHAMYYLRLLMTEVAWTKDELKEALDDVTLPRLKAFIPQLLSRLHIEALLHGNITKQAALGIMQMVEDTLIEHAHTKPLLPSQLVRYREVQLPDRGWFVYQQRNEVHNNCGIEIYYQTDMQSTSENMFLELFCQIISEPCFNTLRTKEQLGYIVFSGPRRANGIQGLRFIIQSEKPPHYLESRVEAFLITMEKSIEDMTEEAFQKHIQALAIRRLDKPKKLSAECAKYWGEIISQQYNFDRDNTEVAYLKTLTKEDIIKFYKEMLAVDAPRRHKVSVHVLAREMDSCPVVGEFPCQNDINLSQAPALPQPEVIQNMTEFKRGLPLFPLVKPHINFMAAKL

[22] = target: T3, Insulin-degrading enzyme; assay: activators of endogenous IDE in HEK cells, dose response, cell-based, fluorescence polarization (AID 588439); type: functional
[23] = test system: HEK293; assay: HEK cell cytotoxicity by LDH release, dose response, cytotoxicity control for IDE activator project, fluorescence, HEK cells (AID 588440); type: functional, cell-based; details: Homo sapiens;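 note: cytotoxicity by LDH release measuring loss of membrane integrity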
[24] = test system: HEK293; assay: optical interference in Abeta FP readout, dose response, artefact control for IDE activator project, biochemical, fluorescence polarization (AID 588442); type: functional, cell-based; details: Homo sapiens
[25] = test system: A-375; assay: A375 melanoma cell viability reduction, dose response, counter-screen for MITF modulator project, cherry-pick samples, set 2 (AID 540335); type: functional, cell-based; details: Homo sapiens
[26] = target: Melanocortin receptor 4 (Homo sapiens, UniProt P32245); type: functional, cell-based;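 note: Cell-based assay with luminescence read-out, confirmatory dose-response testing for agonist activity of biased ligands at MC4R; human U2OS cells with tagged receptor and beta-arrestin; potency of agonists that increase receptor coupling to beta-arrestin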
[27] = miR-122 activators in hepatoma reporter cells, dose response, cell-based, Huh7 psiCHECK-miR122, Renilla luciferase, cherry-picked (AID 651956); type: functional;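 note: huh7 hepatoma cells stably carrying a psiCHECK-2 miR-122 sensor plasmid; renilla luciferase signal reporting endogenous miR-122 activity after 48 h compound exposure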
[28] = target: T4, DNA repair protein RAD52 homolog (Homo sapiens, UniProt P43351); type: functional, biochemical
T4 sequence (P43351 whole entry): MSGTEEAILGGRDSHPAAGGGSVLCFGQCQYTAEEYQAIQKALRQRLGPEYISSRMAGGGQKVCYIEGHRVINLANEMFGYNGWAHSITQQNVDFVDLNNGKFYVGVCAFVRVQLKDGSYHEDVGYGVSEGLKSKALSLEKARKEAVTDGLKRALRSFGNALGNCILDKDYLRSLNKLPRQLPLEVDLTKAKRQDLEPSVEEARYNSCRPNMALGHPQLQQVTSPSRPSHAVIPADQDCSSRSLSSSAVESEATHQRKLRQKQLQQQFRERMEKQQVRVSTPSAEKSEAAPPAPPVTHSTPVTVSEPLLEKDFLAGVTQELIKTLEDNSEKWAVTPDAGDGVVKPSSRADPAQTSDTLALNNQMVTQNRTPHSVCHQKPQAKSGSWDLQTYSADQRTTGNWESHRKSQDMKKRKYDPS

[29] = HEK293T cytotoxicity, dose response, cytotoxicity control for miR-122 modulator project, cell-based, inhibitor set, cherry-pick, set 2 (AID 720697); type: functional
[30] = HEK293T cytotoxicity, dose response, cytotoxicity control for miR-122 modulator project, cell-based, activator set, cherry-pick (AID 720690); type: functional;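 note: HEK293T human cells scored for general mammalian cytotoxicity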
[31] = target: DNA dC->dU-editing enzyme APOBEC-3A (Homo sapiens, UniProt P31941); assay: Dose Response confirmation of small molecule APOBEC3A DNA Deaminase Inhibitors via a fluorescence-based single-stranded DNA deaminase assay. [Related pubchem assays (depositor defined):AID493011, AID493024]; type: functional
[32] = target: DNA dC->dU-editing enzyme APOBEC-3G (Homo sapiens, UniProt Q9HC16); type: functional;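 note: Dose-response counterscreen measuring inhibition of APOBEC3G DNA deaminase activity, run while confirming APOBEC3A inhibitors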
[33] = target: Histone-lysine N-methyltransferase NSD2 (Homo sapiens, UniProt O96028); type: biochemical
[34] = target: Beta-galactosidase (Escherichia coli, UniProt Q8VNN2); assay: Dose response counterscreen for EBI2 assay utilizing the enzyme, b-galactosidase.; type: functional
[35] = target: Fructose-bisphosphate aldolase (Mycobacterium tuberculosis, UniProt P9WQA3); assay: Fluorescence-based biochemical high throughput dose response assay for inhibitors of the fructose-bisphosphate aldolase (FBA) of M. tuberculosis.; type: functional
[36] = Late stage assay provider results from the probe development effort to identify inhibitors of the Plasmodium falciparum M17 Leucine Aminopeptidase (M17LAP): radiolabel-based cell-based dose response assay to identify compounds that inhibit P. falciparum growth in RBCs Set 2.; type: functional
[37] = test system: Vero; assay: Vero cell toxicity, dose response, cytotoxicity control, plate reader, cherry-pick samples (AID 687020); type: functional, cell-based; details: Chlorocebus sabaeus
[38] = target: Albumin (Bos taurus, UniProt P02769); assay: Counterscreen for inhibitors of T-cell receptor (TCR)-CD3 interaction: Fluorescence-based biochemical high throughput dose response assay to identify inhibitors of T-cell receptor (TCR)-CD3 interaction using a TAMRA-labeled BSA probe.; type: functional
[39] = test system: A549; assay: A549 cell toxicity, dose response, cytotoxicity control, plate reader, cherry-pick samples (AID 687028); type: functional, cell-based; details: Homo sapiens

S=C(Nc1ccccc1)Nc1nccs1
IC50 [1]: > 122 µM (inactive) | AC50 [2]: 31.6 µM (inconclusive) | AC50 [3]: 15.8 µM (inconclusive) | AC50 [4]: 20 µM (inconclusive)

Cc1cccc(OCCCC(=O)Nc2nc3ccccc3[nH]2)c1
IC50 [5]: 2.88 µM (active) | IC50 [6]: 39.5 µM (inactive) | IC50 [7]: 29.6 µM (inactive) | IC50 [8]: 4.34 µM (active) | EC50 [9]: > 91.1 µM (inactive) | EC50 [10]: > 91.1 µM (inactive)

CCOC(=O)CSc1nc(Cc2ccccc2)nc2ccccc12
IC50 [11]: 4.31 µM (active) | IC50 [12]: > 138 µM (inactive)

O=C(NNc1c2ccccc2nc2ccccc12)c1cc2ccccc2cc1O
EC50 [13]: 6.4 µM (active) | EC50 [14]: 7.12 µM (active) | AC50 [15]: 27 µM (active) | AC50 [16]: 28.2 µM (active) | CC50 [17]: 2.61 µM (active) | IC50 [18]: 24.4 µM (inactive)

COc1cccc2sc(N(CCCN(C)C)C(=O)C(c3ccccc3)c3ccccc3)nc12
CC50 [19]: 13.6 µM (active) | AC50 [20]: 15.1 µM (active) | EC50 [21]: > 54.7 µM (inactive) | EC50 [22]: 15.1 µM (inactive) | IC50 [23]: 10.2 µM (inactive) | EC50 [24]: > 54.7 µM (inactive) | AC50 [25]: 18.3 µM (active) | EC50 [26]: > 89.2 µM (inactive) | AC50 [27]: 8.07 µM (active) | AC50 [28]: 13.3 µM (active) | AC50 [29]: 1.77 µM (active) | AC50 [30]: 16.2 µM (active)

Cc1cc(/C=C2\C(=O)NC(=O)N(c3cccc(F)c3)C2=O)c(C)n1-c1cc(C(=O)O)cc(C(=O)O)c1
IC50 [31]: 16.8 µM (active) | IC50 [32]: 27.4 µM (active) | AC50 [33]: > 20 µM (inactive)

COC(=O)c1cc(=O)n(Cc2ccc(F)cc2)/c(=N/c2ccccc2)s1
AC50 [15]: 4.82 µM (active) | IC50 [34]: > 80 µM (inactive)

COC1=Nc2ccccc2N2CCN=C12
IC50 [35]: 2.07 µM (active)

CCCCc1ccc(CC(=O)NO)cc1
IC50 [36]: 4.3 µM (active)

O=C(NNC(=O)c1ccccc1O)c1ccccc1O
AC50 [37]: 1.05 µM (active) | IC50 [38]: > 93.9 µM (inactive) | AC50 [39]: 2.46 µM (active)
